In patent US12421254B2, “KRAS modulators and uses thereof” (Quanta Therapeutics, Inc., priority 2023, dated 2025) one finds IC50 data, which are given here for 6 compounds.

In general, IC50 refers to the midpoint of a concentration-inhibition curve. The low end stands for greater potency in that assay, the high end for weaker potency in that assay.

SMILES strings stand for the structures.

The target of assay [1] is GST-tagged KRAS-G12V (2-169) (Homo sapiens, UniProt P01116, G12V). Nature of the assay: Nucleotide exchange assay (NEA), SOS-mediated, HTRF, KRAS G12V. The format is biochemical. Particulars: Table 4; IC50 extracted at 90 min; 80 nM SOS. The essentials:
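GST-KRAS-G12V (2-169), 0.25 nM, pre-incubated 1 h at RT with compound, then SOS1cat (564-1049) 80 nM and GTP-DY-647P1 150 nM added in HEPES pH 7.3 buffer with MgCl2 and DTT. HTRF via anti-GST Tb cryptate read over 90 min; IC50 from 4-parameter fit at 90 min, blanked to no-SOS reactions.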
For orientation: In TR-FRET formats the signal depends on donor and acceptor labels being close together.

In the next assay the target is T1, KRAS G12V/RAF1 (Homo sapiens, UniProt P01116, G12V).
T1 construct: KRAS (1-169) proteins were expressed in BL21 (DE3)-CodonPlus E. coli; His6-MBP (N, cleaved yes)
T1 sequence (P01116 with tags, fused parts or gaps isoform P01116-2 G12V): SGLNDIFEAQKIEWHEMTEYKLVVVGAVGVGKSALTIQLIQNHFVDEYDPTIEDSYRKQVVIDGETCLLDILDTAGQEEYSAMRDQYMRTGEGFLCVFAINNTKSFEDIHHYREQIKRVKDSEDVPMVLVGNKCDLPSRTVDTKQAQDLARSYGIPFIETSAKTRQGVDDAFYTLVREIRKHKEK
Nature of the assay: Protein-protein interaction (PPI) HTRF assay KRAS G12V/RAF1. Particulars: Table 3. The format is binding.

A further assay has as its target T2, w.t. KRAS/RAF1 (Homo sapiens, UniProt P01116).
T2 construct: KRAS (1-169) proteins were expressed in BL21 (DE3)-CodonPlus E. coli; His6-MBP (N, cleaved yes)
Nature of the assay: Protein-protein interaction (PPI) HTRF assay w.t. KRAS/RAF1. The assay is classed as binding. Particulars: Table 3; wt KRAS/RAF1. On the procedure: (§1) When RAS proteins are in the active GTP-bound conformation, they bind the effector protein RAF1 at the N-terminus Ras-binding domain (RBD, residues 52-131) (Tran, et al., 2021). Homogenous time resolved fluorescence (HTRF) was used to monitor the interaction between wt or mutant KRAS and RAF1 or wt NRAS and RAF1. Compounds were assayed in the presence of KRAS G12D/V and RAF1 versus wt KRAS to assess activity against mutant and w.t. KRAS. Similarly, compounds were then assayed in the presence of w.t. NRAS and RAF1 to assess RAS isoform selectivity. In all assay formats, His-tagged RAF1 protein was incubated with the HTRF donor, anti-6His Tb Cryptate gold (Cisbio 61DB10RDF), and biotinylated RAS proteins were incubated with the HTRF acceptor, streptavidin-d2 (CisBio 610SADLA). The intensity of the fluorescence signal emitted is proportional to binding between the two proteins. The donor solution was prepared by mixing 16 nM His-tagged RAF1 in protein dilution buffer with 1:100 anti-6His Tb cryptate in PPI-Terbium detection buffer. 16 nM biotinylated RAS protein was diluted into protein dilution buffer (50 mM Tris-HCl pH 7.5, 150 mM NaCl, 0.1 mM MgCl2, 1 mM TCEP, 0.005% Tween20) and mixed with 1:2000 Streptavidin-d2 diluted in PPI-Terbium detection buffer (CisBio 61DB10RDF). 50× compound in DMSO was mixed with 16 nM KRAS-acceptor solution and incubated for 30 minutes at room temperature. After compound pre-incubation with KRAS, the RAF1 donor solution was added to the KRAS-acceptor solution and incubated for 1 hour at room temperature. The fluorescence signal emitted was monitored at 665 nm and 615 nm using an Envision multimode plate reader. The HTRF ratio (665/615) was calculated and normalized to 0% inhibition in the absence of compound and 100% inhibition in the presence of untagged RAF1 protein. PPI KRAS G12D/RAF1, KRAS G12V/RAF1, w.t. KRAS/RAF1 and NRAS/RAF1 IC50 (uM) values of selected compounds are depicted in Table 3 and Table 4 with compounds having a value <0.1 uM as ++++; ≥0.1 uM to 1 uM as +++; ≥1 uM to 10 uM as ++; ≥10 uM to 100 uM as +; and ≥100 uM as NA.

A further assay deals with T3, NRAS/RAF1 (Homo sapiens, UniProt P01111).
T3 construct: (1-169); His6-SUMO (N, cleaved yes)
T3 sequence (P01111 with tags, fused parts or gaps): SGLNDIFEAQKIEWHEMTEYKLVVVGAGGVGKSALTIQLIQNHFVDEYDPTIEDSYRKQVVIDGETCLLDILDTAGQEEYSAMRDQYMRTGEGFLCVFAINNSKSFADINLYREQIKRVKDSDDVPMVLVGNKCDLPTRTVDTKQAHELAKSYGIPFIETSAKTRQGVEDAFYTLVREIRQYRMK
Nature of the assay: Protein-protein interaction (PPI) HTRF assay w.t. NRAS/RAF1. The assay is classed as binding. The following applies: Table 3; wt NRAS/RAF1. On the procedure: as §1

A further assay concerns the target T4, KRAS G12D/RAF1 (Homo sapiens, UniProt P01116, G12D).
T4 construct: KRAS (1-169) proteins were expressed in BL21 (DE3)-CodonPlus E. coli; His6-MBP (N, cleaved yes)
Nature of the assay: Protein-protein interaction (PPI) HTRF assay KRAS G12D/RAF1. The assay is classed as binding. The following applies: Table 2.

GST-tagged KRAS-G12V (2-169), sequence (P01116 2-169 isoform P01116-2 G12V): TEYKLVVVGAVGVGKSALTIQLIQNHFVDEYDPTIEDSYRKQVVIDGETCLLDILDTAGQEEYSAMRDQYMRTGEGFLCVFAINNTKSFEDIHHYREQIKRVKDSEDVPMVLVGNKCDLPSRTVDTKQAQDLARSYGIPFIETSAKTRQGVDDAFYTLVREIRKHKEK
T2 sequence (P01116 with tags, fused parts or gaps isoform P01116-2): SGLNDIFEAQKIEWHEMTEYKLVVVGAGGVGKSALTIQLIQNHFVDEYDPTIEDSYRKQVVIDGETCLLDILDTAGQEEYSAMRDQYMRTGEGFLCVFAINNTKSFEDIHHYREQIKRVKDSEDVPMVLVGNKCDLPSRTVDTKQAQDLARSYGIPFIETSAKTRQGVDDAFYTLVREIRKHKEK
T4 sequence (P01116 with tags, fused parts or gaps isoform P01116-2 G12D): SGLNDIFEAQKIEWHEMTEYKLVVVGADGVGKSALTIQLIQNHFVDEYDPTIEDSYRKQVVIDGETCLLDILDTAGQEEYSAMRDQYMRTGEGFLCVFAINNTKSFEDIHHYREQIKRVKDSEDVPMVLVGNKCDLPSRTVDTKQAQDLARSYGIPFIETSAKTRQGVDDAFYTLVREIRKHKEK

For `N#Cc1c(N)sc2c1C1(CC2)CN(c2nc(OCC34CCCN3CC(F)C4)nc(N3CC4CCC(C3)N4)n2)C1` [Compound 1, 2-amino-1′-[4-(3,8-diazabicyclo[3.2.1]octan-3-yl)-6-[[(2R,8S)-2-fluoro-1,2,3,5,6,7-hexahydropyrrolizin-8-yl]methoxy]-1,3,5-triazin-2-yl]spiro[5,6-dihydrocyclopenta[b]thiophene-4,3′-azetidine]-3-carbonitrile], the IC50 in assay [1] is 0.01 to 0.1 µM; against KRAS G12V/RAF1 it was 0.1 to 1 µM; against w.t. KRAS/RAF1, 1 to 10 µM; at NRAS/RAF1, > 100 µM; against KRAS G12D/RAF1 it was 0.1 to 1 µM.

As to `N#Cc1c(N)sc2c1C1(CC2)CN(c2nc(OCC3(CN4CCOCC4)CC3)nc(N3C[C@H]4CC[C@@H](C3)N4)n2)C1` [Compound 2, 2-amino-1′-[4-[[1-(morpholinomethyl)cyclopropyl]methoxy]-6-[(1R,5S)-3,8-diazabicyclo[3.2.1]octan-3-yl]-1,3,5-triazin-2-yl]spiro[5,6-dihydrocyclopenta[b]thiophene-4,3′-azetidine]-3-carbonitrile], the IC50 in assay [1] was 0.1 to 1 µM; on KRAS G12V/RAF1, 1 to 10 µM; on w.t. KRAS/RAF1, 1 to 10 µM; on NRAS/RAF1, > 100 µM; against KRAS G12D/RAF1 it was 1 to 10 µM.

For `N#Cc1c(N)sc2c1C1(CCC2)CN(c2nc(OCC3(CN4CCOCC4)CC3)nc(N3C[C@H]4CC[C@@H](C3)N4)n2)C1` [Compound 3, 2-amino-1′-[4-[(1R,5S)-3,8-diazabicyclo[3.2.1]octan-3-yl]-6-[[1-(morpholinomethyl)cyclopropyl]methoxy]-1,3,5-triazin-2-yl]spiro[6,7-dihydro-5H-benzothiophene-4,3′-azetidine]-3-carbonitrile], the IC50 was 0.1 to 1 µM in assay [1]; 10 to 100 µM on KRAS G12V/RAF1; 1 to 10 µM on w.t. KRAS/RAF1; > 100 µM at NRAS/RAF1; 1 to 10 µM on KRAS G12D/RAF1.

On to `N#Cc1c(N)sc2c1C1(CC2)CN(c2nc(OCC3(CN4CCOCC4)CC3)nc(N3CCCC4(C3)NC(=O)NC4=O)n2)C1` (centres unmarked) [Compound 7, 2-amino-1′-[4-(2,4-dioxo-1,3,9-triazaspiro[4.5]decan-9-yl)-6-[[1-(morpholinomethyl)cyclopropyl]methoxy]-1,3,5-triazin-2-yl]spiro[5,6-dihydrocyclopenta[b]thiophene-4,3′-azetidine]-3-carbonitrile], for which the IC50 in assay [1] was < 0.01 µM; against KRAS G12V/RAF1, 0.1 to 1 µM; against w.t. KRAS/RAF1 it was 0.1 to 1 µM; on NRAS/RAF1 it was > 100 µM; on KRAS G12D/RAF1, 0.1 to 1 µM.

For `C[C@@]1(O)CCCN(c2nc(OC[C@@]34CCCN3C[C@H](F)C4)nc(N3CC4(CCc5sc(N)c(C#N)c54)C3)n2)C1` [Compound 10, 2-amino-1′-[4-[[(2R,8S)-2-fluoro-1,2,3,5,6,7-hexahydropyrrolizin-8-yl]methoxy]-6-[(3R)-3-hydroxy-3-methyl-1-piperidyl]-1,3,5-triazin-2-yl]spiro[5,6-dihydrocyclopenta[b]thiophene-4,3′-azetidine]-3-carbonitrile], the IC50 in assay [1] is < 0.01 µM; on KRAS G12V/RAF1, 1 to 10 µM; on w.t. KRAS/RAF1 it was 1 to 10 µM; at NRAS/RAF1 it was > 100 µM; at KRAS G12D/RAF1, 1 to 10 µM.

For `N#Cc1c(N)sc2c1C1(CC2)CN(c2nc(OC[C@@]34CCCN3C[C@H](F)C4)nc(N3CCCC(C#N)C3)n2)C1` (stereo partly drawn) [Compound 13, 2-amino-1′-[4-(3-cyano-1-piperidyl)-6-[[(2R,8S)-2-fluoro-1,2,3,5,6,7-hexahydropyrrolizin-8-yl]methoxy]-1,3,5-triazin-2-yl]spiro[5,6-dihydrocyclopenta[b]thiophene-4,3′-azetidine]-3-carbonitrile], the IC50 in assay [1] lay within 0.01 to 0.1 µM; on KRAS G12V/RAF1, 1 to 10 µM; at w.t. KRAS/RAF1, 1 to 10 µM; against KRAS G12D/RAF1, 1 to 10 µM.
